For data set [1], the target named is T1, human 5α-reductase type 1 (Homo sapiens, UniProt P18405).
T1 sequence (P18405 1-259): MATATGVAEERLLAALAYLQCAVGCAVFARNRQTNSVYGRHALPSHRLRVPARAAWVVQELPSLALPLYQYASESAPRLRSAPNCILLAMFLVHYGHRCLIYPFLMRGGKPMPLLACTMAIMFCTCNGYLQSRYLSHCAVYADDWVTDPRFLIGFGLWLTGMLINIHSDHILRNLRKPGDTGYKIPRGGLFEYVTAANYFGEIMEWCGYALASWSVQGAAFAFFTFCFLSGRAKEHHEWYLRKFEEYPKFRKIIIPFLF
Description: Human 5α-reductase type 1 assay (DU-145 cell line).

In data set [2] the target is T2, human 5α-reductase type 2 (Homo sapiens, UniProt P31213).
T2 sequence (P31213 1-254): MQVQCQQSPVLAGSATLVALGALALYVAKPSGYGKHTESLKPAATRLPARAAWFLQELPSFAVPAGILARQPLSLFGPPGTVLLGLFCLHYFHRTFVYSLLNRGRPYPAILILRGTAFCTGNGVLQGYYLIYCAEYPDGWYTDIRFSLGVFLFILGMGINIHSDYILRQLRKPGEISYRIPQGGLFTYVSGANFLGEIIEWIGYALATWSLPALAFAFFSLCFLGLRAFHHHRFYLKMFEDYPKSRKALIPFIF
Description: Human 5α-reductase type 2 assay (BPH tissue homogenate). As to conditions: for inhibition at 10 µM: read-out: 5α-Reductase type 2 % inhibition at 10 μM.

Data set [3] has as its target T3, CYP17 (Homo sapiens, UniProt P05093).
T3 sequence (P05093 1-508): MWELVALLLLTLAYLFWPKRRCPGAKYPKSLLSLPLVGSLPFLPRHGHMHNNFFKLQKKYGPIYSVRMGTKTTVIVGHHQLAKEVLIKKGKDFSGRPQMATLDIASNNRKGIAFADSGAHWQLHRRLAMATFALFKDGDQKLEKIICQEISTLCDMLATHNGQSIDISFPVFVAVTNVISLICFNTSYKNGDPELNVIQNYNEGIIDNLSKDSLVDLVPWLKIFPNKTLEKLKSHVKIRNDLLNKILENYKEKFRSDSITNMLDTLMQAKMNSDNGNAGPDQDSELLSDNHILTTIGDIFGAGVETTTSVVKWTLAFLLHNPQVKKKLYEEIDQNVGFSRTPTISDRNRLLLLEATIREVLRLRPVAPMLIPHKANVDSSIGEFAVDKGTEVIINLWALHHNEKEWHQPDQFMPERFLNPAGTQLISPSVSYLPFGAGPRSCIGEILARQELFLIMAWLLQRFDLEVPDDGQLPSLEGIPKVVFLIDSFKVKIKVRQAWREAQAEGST
Description: CYP17 inhibition, acetic acid releasing assay with intact P450c17-expressing E. coli.

The subject of data set [4] is LNCaP mutant AR-mediated transcription. Description: Luciferase transactivation assay in LNCaP cells transfected with ARR2-Luc. Conditions: 18 h.
Description: Luciferase Transactivation Assay: Transcriptional activation assay is carried out as described previously by Kim et al., above, with minor modifications. […] The pRL-null (Promega) is used as the internal control. […] Luciferase activities are measured in triplicates by using dual luciferase assay system according to the manufacturer's instruction (Promega).
The bars represent the mean light units [counts per second (cps)/unit protein, i.e., relative luciferase activity] in triplicate wells from three separate experiments.
For a further data set, the system named is LNCaP cells. Description: LNCaP cell growth, WST-1 viability assay. Background: Tetrazolium dyes change colour on reduction, which living cells bring about.
In a further data set the test system is LAPC4 cells. Description: LAPC4 cell growth, WST-1 viability assay.
The target of data set [5] is T3, CYP17. Description: UV-vis difference spectroscopy, binding to heme iron of CYP17. More on the design: peak position of Soret maximum of the enzyme complex: unit not given here.
For data set [6], the system named is LAPC4 human prostate tumor xenograft. Description: LAPC4 xenograft, second experiment (treatment from day after inoculation). It is filed as in vivo, mouse. An excerpt:
The second in vivo experiment tests the ability of 5 to inhibit the growth of LAPC4 prostate cancer cells growing in SCID mice, and 16 (Chart 1), a previously identified potent CYP17 inhibitor/antiandrogen (Gregoriyev et al. and Njar et al., J. Med. Chem., 1998, 41, 902-912, above) and castration are used as reference treatments. In this experiment, treatment begins on the day that mice were inoculated subcutaneously with hormone-dependent LAPC4 cells and are castrated or injected sc twice daily with 5 or 16.
In Vivo Antitumor Studies (LAPC-4 Prostate Cancer Xenografts): All animal studies are performed according to the guidelines and approval of the Animal Care Committee of the University of Maryland School of Medicine, Baltimore. Male severe combined immunodeficient (SCID) mice 4-6 weeks of age purchased from the National Cancer Institute-Frederick Cancer Research and Development Center (Fredrick, Md.) are housed in a pathogen-free environment under controlled conditions of light and humidity and allowed free access to food and water. Tumors are developed from LAPC4 cells inoculated subcutaneously (s.c.) in the mice essentially as previously described (21). LAPC4 cells are grown in IMEM with 15% FBS plus 1% PS and 10 nm DHT until 80% confluent. Cells are scraped into DPBS, collected by centrifugation, and resuspended in Matrigel (10 mg/ml) at 3×10^7 cells/ml. Mice are injected s.c. with 100 μl of the cell suspension at one site on each flank. Tumors are measured weekly with calipers, and tumor volumes are calculated by the formula: […]).
In the second experiment, mice are inoculated with LAPC4 cells and are divided into four groups of 5 mice each. The control and castrated group receiv vehicle, while the other two groups receiv either VN/85-1 (0.15 mmol/kg twice-daily, 9 a.m. and 5 p.m.) or 5 (0.15 mmol/kg twice-daily, 9 a.m. and 5 p.m.). These treatments are initiated one day after LAPC4 cell inoculation; continued for 14 weeks for control group, 19 weeks (for VN/85-1 and castration groups) and for 21 weeks for 5 treated group and tumors are measured and processed as described above.
FIG. 7: The effects of 5, 16, and orchidectomy on the formation and growth of LAPC4 prostate tumors in male SCID mice. 3×10^7 LAPC-4 cells were injected s.c. into the dorsal flank of SCID mice. One group of mice was castrated. The other groups of mice received either vehicle or 5 (0.15 mmol/kg twice-daily) or 16 (0.15 mmol/kg twice-daily). Daily treatment with 5 or 16 was initiated 1 day after cell inoculation. Tumors volumes were measured weekly, and the percentage of change in tumor volume was determined after 16 weeks of treatment * Indicates significant difference of 5 versus control, castration and 16 at week 14 (P 0.00065, 0.05 and 0.0097, respectively). ** Indicates significant difference of 5 versus castration and 16 at week 16 (P=0.047 and 0.0047, respectively). ↓-↓↓: Period of reduced administered dose of 5.

The mark [7] stands for this setting: read-out: CYP17 IC50, intact P450c17-expressing E. coli, substrate [21-3H]-17α-hydroxypregnenolone.

The source of these data is patent US7875599B2, “C-17-heteroaryl steroidal CYP17 inhibitors/antiandrogens, in vitro biological activities, pharmacokinetics and antitumor activity” (University of Maryland, priority 2005, dated 2011).

Like-named read-outs stand apart in the source and are kept apart here.

Description for LAPC4 cells: To determine the effect of novel compounds on cell proliferation, cells are transferred into steroid-free medium three days prior to the start of the experiments. Steroid-free medium consisted of phenol red free RPMI supplemented with 5% dextran-coated, charcoal treated serum, and 1% penicillin/streptomycin solution. Growth studies are then performed by plating cells (3×10^4) in 24-well multi-well dishes (Corning, Inc. Corning, N.Y.). After a 24 hours attachment period, the medium is aspirated and replaced with steroid-free medium containing vehicle or the indicated concentration of DHT (1 nM) and compounds (0.1 μM-10 μM). Control wells are treated with vehicle (ethanol). This medium is changed every three days and the number of viable cells is compared by WST-1 [4-[3-(4-iodophenyl)-2-(4-nitrophenyl)-2H-5-tetrazolio]-1,3-benzene disulfonate] assay on the seventh day. Following incubation of cells for the above-mentioned time, 10% WST-1 solution is added to each well and incubated at 37° C. for three hours. Following incubation, plates are slightly shaken and immediately read at 450 nm with a scanning multi-well spectrophotometer. All results represent the average of a minimum of three wells. Additional control consists of medium alone with no cells.
Cells were grown in steroid-free medium before plating.

The inhibition is how much of the control response was suppressed. A word on the melting point: it is the temperature, or range, at which the solid turns liquid. As for `C[C@]12CCC(=O)C=C1CCC1C2CC[C@]2(C)C(n3nnc4ccccc43)=CCC12` (stereo partly shown) [Compound 10, 17-(benzo-1H-1,2,3-triazol-1-yl)androsta-4,16-diene-3-one], the melting point was 280 to 283 °C. For the same compound, the inhibition at 10 µM in [1] (read-out: 5α-Reductase type 1 % inhibition at 10 μM) was found to be 21%. Also, in data set [2], the inhibition at 10 µM stood at 56%. In addition, on CYP17 [3] (setting [7]), the IC50 came to 5820 nM.

Compound `C[C@]12CC[C@H](O)CC1=CC[C@@H]1[C@@H]2CC[C@]2(C)C(c3cncnc3)=CC[C@@H]12` [Compound 15, 3β-Hydroxy-17-(5-pyrimidyl)-androsta-5,16-diene] yielded a melting point of 231 to 233 °C. For the same compound, at CYP17 [3], the IC50 is 500 nM.

On to `C[C@]12CCC(=O)C[C@@H]1CC[C@@H]1[C@@H]2CC[C@]2(C)[C@@H](O)CC[C@@H]12` [DHT, dihydrotestosterone], for which the “increase of luciferase expression” value in [4] (1.0 nM) was “approximately 99.6 fold”. Further, the “stimulation of LNCaP cell proliferation compared to vehicle-treated cells” value in the data set with LNCaP cells (1 nM) is “about 2 fold”. Also, in the data set on LAPC4 cells (10 nM), the “induction of LAPC4 cell proliferation” value is “does not significantly induce cell proliferation”.

`CC(O)(CS(=O)(=O)c1ccc(F)cc1)C(=O)Nc1ccc(C#N)c(C(F)(F)F)c1` (stereo not shown) [Casodex]: the “effect on luciferase activity, compound alone” value in [4] (0.1 and 10.0 μM, without DHT) is listed as “no effect”. In addition, in data set [4] (with 1.0 nM DHT), the “effect on luciferase expression induced by 1.0 nM DHT” value is listed as “decreased in a concentration-dependent manner”. For the same compound, the IC50 was 8600 nM in the data set on LNCaP cells (Homo sapiens, LNCaP, 168 h, read-out: IC50, inhibition of DHT-induced LNCaP cell proliferation, 1 nM DHT, 7 days, WST-1) and 10000 nM in the data set on LAPC4 cells (Homo sapiens, LAPC4, 168 h, read-out: IC50, inhibition of LAPC4 cell proliferation, 10 nM DHT, 7 days, WST-1).

Compound `C[C@]12CC[C@H](O)CC1=CCC1C2CC[C@]2(C)C(n3nnc4ccccc43)=CCC12` (stereo partly drawn) [Compound 9, 3β-Hydroxy-17-(benzo-1H-1,2,3-triazol-1-yl)androsta-5,16-diene] registered a melting point of 241 to 244 °C. Also, in data set [1] (10 μM, DU-145 cells, substrate 5 nM [1β-3H]androstenedione), the “5α-Reductase type 1 % inhibition at 10 μM” value is reported as “ni^f”. In data set [2], the inhibition at 10 µM was determined as 17%. For the same compound, on CYP17 [3] (setting [7]), the IC50 worked out at 1250 nM. In addition, at CYP17 [5], the “peak position of Soret maximum of the enzyme complex” value was determined as 426 and the “type of difference spectrum induced” value is recorded as “type II difference spectrum”.

On to `C[C@]12CC[C@H](O)CC1=CC[C@@H]1[C@@H]2CC[C@]2(C)C(c3cccnc3)=CC[C@@H]12` [Abiraterone, reference compound], for which the IC50 against CYP17 [3] was 800 nM.

Take `C[C@]12CC[C@H](O)CC1=CCC1C2CC[C@]2(C)C(c3cnccn3)=CCC12` (stereo partly drawn) [Compound 14, 3β-Hydroxy-17-(2-pyrazyl)-androsta-5,16-diene]: the IC50 at CYP17 [3] (setting [7]) was 3810 nM.

`CC(C)(C)NC(=O)[C@H]1CC[C@H]2[C@@H]3CC[C@H]4NC(=O)C=C[C@]4(C)[C@H]3CC[C@]12C` [Finasteride, reference compound]: the IC50 turned out to be 60 nM in data set [1] (read-out: 5α-Reductase type 1 [IC50], DU-145 cells, values in square brackets) and 2 nM in [2] (read-out: 5α-Reductase type 2 [IC50], BPH tissue enzyme, values in square brackets).

With `C[C@]12CC[C@H](O)CC1=CC[C@@H]1[C@@H]2CC[C@]2(C)C(n3ccnc3)=CC[C@@H]12` [VN/85-1, 3β-hydroxy-17-(1H-imidazole-1-yl)androsta-5,16-diene], in data set [6] (0.15 mmol/kg twice-daily), the “week of therapy at which palpable and measurable tumors develop” value was found to be 11 week. Also, in data set [6] (0.15 mmol/kg twice-daily s.c., week 14), the “increase of tumor volume” value is recorded as 3.7 fold. Further, the “reduction of tumor volume versus control mice” value in data set [6] (0.15 mmol/kg twice-daily s.c., week 14 (b4 prints 50 mg/kg/twice daily)) is 53.8%. On CYP17 [3], the “times more potent than 5 in CYP17 inhibition” value is 6 times. Further, the IC50 on CYP17 [3] (setting [7]) turned out to be 50 nM.
